These results are taken from US7470664.

For this data set the following is noted: 19-membered ring.

Molecules are shown by their SMILES. Read-outs that look alike come from different tables or passages of the source.

`COC(=O)[C@@H]1C[C@@H]2CN1C(=O)[C@H](C(C)(C)C)NC(=O)OCCCC#Cc1cccc3c1CN(C3)C(=O)O2` gave a ring closure, isolated yield (from COC(=O)[C@@H]1C[C@@H](OC(=O)N2Cc3cccc(C#CCCCOC(=O)N[C@H](C(=O)O)C(C)(C)C)c3C2)C[NH2+]1, amide bond, HATU/Et3N/DMAP, DCM, 42.0 mM, 25.0 °C, 2 steps) of 43%. With `CCCC[C@@H]1NC(=O)OCCCC=Cc2cccc3c2CN(C3)C(=O)O[C@@H]2C[C@@H](C(=O)OC)N(C2)C1=O`, the ring closure, isolated yield (from C=CCCCOC(=O)N[C@@H](CCCC)C(=O)N1C[C@H](OC(=O)N2Cc3cccc(C=C)c3C2)C[C@H]1C(=O)OC, rcm bond, Zhan catalyst I (RC-301), DCE, 5.5 mM, 100.0 °C) came to 79%.
